{
  "source": "patent US4294824A",
  "about": "“Extracts of the hemopoietic system” (priority 1975, dated 1981)",
  "origin": "cited, not measured here",
  "data": [
    {"settings": "lists continue in the following blocks", "values": [
      {"smiles": "O=P1(N(CCCl)CCCl)NCCCO1", "note": "(centres unmarked) [CYCLOPHOSPHAMIDE, cyclophosphamide]", "SOME SIDE EFFECTS AND MAJOR TOXICITY": "Leucopenia, anorexia, nausea, vomiting. diarrhoea"},
      {"smiles": "Nc1ccn([C@@H]2O[C@H](CO)[C@@H](O)[C@@H]2O)c(=O)n1", "note": "[CYTOSINE ARABINOSIDE, cystosine arabinoside]", "SOME SIDE EFFECTS AND MAJOR TOXICITY": "Myelosuppression, bone marrow depression, nausea"},
      {"smiles": "COc1cccc2c1C(=O)c1c(O)c3c(c(O)c1C2=O)C[C@@](O)(C(C)=O)C[C@@H]3O[C@H]1C[C@H](N)[C@H](O)[C@H](C)O1", "note": "[DAUNORUBICIN, daunorubicin]", "SOME SIDE EFFECTS AND MAJOR TOXICITY": "Myelosuppression, leucopenia, anaemia"},
      {"smiles": "CN(Cc1cnc2nc(N)nc(N)c2n1)c1ccc(C(=O)N[C@@H](CCC(=O)O)C(=O)O)cc1", "note": "[METHOTREXATE, methotrexate]", "SOME SIDE EFFECTS AND MAJOR TOXICITY": "Myelosuppression, bone marrow depression, leucopenia"},
      {"smiles": "CC[C@]1(O)C[C@H]2CN(CCc3c([nH]c4ccccc34)[C@@](C(=O)OC)(c3cc4c(cc3OC)N(C=O)[C@H]3[C@@](O)(C(=O)OC)[C@H](OC(C)=O)[C@]5(CC)C=CCN6CC[C@]43[C@@H]65)C2)C1", "note": "[VINCRISTINE, vincristine]", "SOME SIDE EFFECTS AND MAJOR TOXICITY": "Peripheral neuropathy, adynamic ileus, myopathy"}
    ]}
  ]
}
